From patent US8211662B2, “Nitroreductase enzymatic substrates” (Biomerieux, priority 2007, dated 2012)

What was measured:
Experiment in all cases: Nitroreductase detection on Columbia agar, colonies read under UV
Settings in all cases: Table 4; 100 mg/l in Columbia agar, 24 h 37° C., UV 360-365 nm
[1] = system: Salmonella typhimurium NCTC 74; assay type: cell-based; set-up: key to Intensity of fluorescence, Salmonella typhimurium NCTC 74 / F: fluorescence (intensity), Salmonella typhimurium NCTC 74 / Intensity of the fluorescence, Salmonella typhimurium NCTC 74: − = no fluorescence detected; +/− = weak fluorescence; + = medium fluorescence; ++ = strong fluorescence
Description: (§1) A mass of 40 mg of each substrate was dissolved in 4 ml of dimethylformamide (DMF). This solution was entirely taken up in 400 ml of Columbia agar autoclaved beforehand and kept molten at 50° C. The final concentration for each substrate was 100 mg/l.
(§2) Each of the media was distributed into Petri dishes 90 mm in diameter, in a proportion of 20 ml per dish.
(§3) 18 microorganism strains derived from collections and belonging to various species of bacteria and of yeasts were inoculated onto these media by semi-quantitative isolation of 10 μl of a suspension at 0.5 McFarland diluted to 1/20. The media were incubated for 24 hours at 37° C., then the colonies formed were examined visually under UV illumination at 360-365 nm.

MRSA NCTC 11939 = assay type: cell-based, Staphylococcus aureus; set-up: key: − = no fluorescence detected; +/− = weak fluorescence; + = medium fluorescence; ++ = strong fluorescence
Description: as §1, §2, §3

[2] = system: Staphylococcus epidermidis NCTC 11047; assay type: cell-based; set-up: key: − = no fluorescence detected; +/− = weak fluorescence; + = medium fluorescence; ++ = strong fluorescence
Description: as §1, §2, §3

[3] = system: Enterococcus faecalis NCTC 775; assay type: cell-based; set-up: key: − = no fluorescence detected; +/− = weak fluorescence; + = medium fluorescence; ++ = strong fluorescence
Description: as §1, §2, §3

[4] = system: Bacillus subtilis NCTC 9372; assay type: cell-based; set-up: key: − = no fluorescence detected; +/− = weak fluorescence; + = medium fluorescence; ++ = strong fluorescence
Description: as §1, §2, §3

[5] = system: Providencia rettgeri NCTC 7475; assay type: cell-based; set-up: key: − = no fluorescence detected; +/− = weak fluorescence; + = medium fluorescence; ++ = strong fluorescence
Description: as §1, §2, §3

[6] = system: Enterobacter cloacae NCTC 11936; assay type: cell-based; set-up: key: − = no fluorescence detected; +/− = weak fluorescence; + = medium fluorescence; ++ = strong fluorescence
Description: as §1, §2, §3

[7] = system: Candida albicans ATCC 90028; assay type: cell-based; set-up: key: − = no fluorescence detected; +/− = weak fluorescence; + = medium fluorescence; ++ = strong fluorescence
Description: as §1, §2, §3

[8] = system: Staphylococcus aureus NCTC 6571; assay type: cell-based; set-up: key: − = no fluorescence detected; +/− = weak fluorescence; + = medium fluorescence; ++ = strong fluorescence
Description: as §1, §2, §3

[9] = system: Pseudomonas aeruginosa NCTC 10662; assay type: cell-based; set-up: key: − = no fluorescence detected; +/− = weak fluorescence; + = medium fluorescence; ++ = strong fluorescence
Description: as §1, §2, §3

[10] = system: Enterococcus faecium NCTC 7171; assay type: cell-based; set-up: key: − = no fluorescence detected; +/− = weak fluorescence; + = medium fluorescence; ++ = strong fluorescence
Description: as §1, §2, §3

[11] = system: Citrobacter freundii 46262 (wild); assay type: cell-based; set-up: key: − = no fluorescence detected; +/− = weak fluorescence; + = medium fluorescence; ++ = strong fluorescence
Description: as §1, §2, §3

[12] = system: Serratia marcescens NCTC 10211; assay type: cell-based; set-up: key: − = no fluorescence detected; +/− = weak fluorescence; + = medium fluorescence; ++ = strong fluorescence
Description: as §1, §2, §3

[13] = system: Escherichia coli NCTC 10418; assay type: cell-based; set-up: key: − = no fluorescence detected; +/− = weak fluorescence; + = medium fluorescence; ++ = strong fluorescence
Description: as §1, §2, §3

[14] = system: Yersinia enterocolitica NCTC 11176; assay type: cell-based; set-up: key: − = no fluorescence detected; +/− = weak fluorescence; + = medium fluorescence; ++ = strong fluorescence
Description: as §1, §2, §3

[15] = system: Streptococcus pyogenes NCTC 8306; assay type: cell-based; set-up: key: − = no fluorescence detected; +/− = weak fluorescence; + = medium fluorescence; ++ = strong fluorescence
Description: as §1, §2, §3

[16] = system: Listeria monocytogenes NCTC 11994; assay type: cell-based; set-up: key: − = no fluorescence detected; +/− = weak fluorescence; + = medium fluorescence; ++ = strong fluorescence
Description: as §1, §2, §3

[17] = system: Candida glabrata NCPF 3943; assay type: cell-based; set-up: key to Intensity of fluorescence, Candida glabrata NCPF3943 / F: fluorescence (intensity), Candida glabrata NCPF 3943 / Intensity of the fluorescence, Candida glabrata NCPF 3943: − = no fluorescence detected; +/− = weak fluorescence; + = medium fluorescence; ++ = strong fluorescence
Description: as §1, §2, §3

[18] = system: Morganella morganii 462403 (wild); assay type: cell-based; set-up: key to Intensity of fluorescence, Morganella morganii 462403 / F: fluorescence (intensity), Morganella morganii 462403 (wild) / Intensity of the fluorescence, Morganella morganii 462403 (wild): − = no fluorescence detected; +/− = weak fluorescence; + = medium fluorescence; ++ = strong fluorescence
Description: as §1, §2, §3

[19] = system: Acinetobacter baumanii ATCC 19606; assay type: cell-based; set-up: key to Intensity of fluorescence, Acinetobacter baumanii ATCC 19606 / Intensity of the fluorescence, Acinetobacter baumanii ATCC 19606: − = no fluorescence detected; +/− = weak fluorescence; + = medium fluorescence; ++ = strong fluorescence
Description: as §1, §2, §3

CN1CCN(c2ccc([N+](=O)[O-])c(-c3nc4ccccc4s3)c2)CC1 [Substrate 23]
Intensity of the fluorescence, Salmonella typhimurium NCTC 74 [1]: +
Intensity of the fluorescence, MRSA NCTC 11939 (MRSA NCTC 11939): +/−
Intensity of the fluorescence, Staphylococcus epidermidis NCTC 11047 [2]: −
Intensity of the fluorescence, Enterococcus faecails NCTC 775 [3]: −
Intensity of the fluorescence, Bacillus subtilis NCTC 9372 [4]: −
Intensity of the fluorescence, Providencia rettgeri NCTC 7475 [5]: +
Intensity of the fluorescence, Enterobacter cloacae NCTC 11936 [6]: +
Intensity of the fluorescence, Candida albicans ATCC 90028 [7]: −
Intensity of the fluorescence, Staphylococcus aureus NCTC 6571 [8]: V.
Intensity of the fluorescence, Pseudomonas aeruginosa NCTC 10662 [9]: +
Intensity of the fluorescence, Enterococcus faecium NCTC 7171 [10]: −
Intensity of the fluorescence, Citrobacter freundii 46262 (wild) [11]: +
Intensity of the fluorescence, Serratia marcescens NCTC 10211 [12]: +
Intensity of the fluorescence, Escherichia coli NCTC 10418 [13]: −
Intensity of the fluorescence, Yersinia enterocolitica NCTC 11176 [14]: −
Intensity of the fluorescence, Streptococcus pyogenes NCTC 8306 [15]: −
Intensity of the fluorescence, Listeria monocytogenes NCTC 11994 [16]: −
Intensity of the fluorescence, Candida glabrata NCPF 3943 [17]: −
Intensity of the fluorescence, Morganella morganii 462403 (wild) [18]: +
Intensity of the fluorescence, Acinetobacter baumanii ATCC 19606 [19]: −
